The numbers were not newly measured in PubChem BioAssay AID1259409 (Chemical Carcinogenesis Research Information System (CCRIS), 2018), which cites them from elsewhere.

The subject of the data set is rodent chemically induced tumor inhibition, incidence and multiplicity. Nature of the data set: CCRIS tumor inhibitor studies. As to conditions: Dose [Inhibitor]: 0.

Turning to `COc1cc2c(cc1OC)[C@@H]1C(=O)c3ccc4c(c3O[C@@H]1CO2)C=CC(C)(C)O4`, the “tumour outcome (control, treated, inhibition, significance)” value by setting is: (Carcinogen: 7,12-DIMETHYLBENZ[A]ANTHRACENE, 57-97-6, 33 UG 2/WK FOR 15 WK APPLIED 1 HR PRIOR TO EACH PROMOTER DOSE (STUDY DURATION: 15 WK), Route [Inhibitor]: DERMAL, Species: MOUSE, Strain/Sex: CD-1/FEMALE, Target Tissue: Type of Lesion: SKIN: TUMOR, Dose [Carcinogen]: 100 UG ONCE, Promoter: 12-O-TETRADECANOYLPHORBOL-13-ACETATE, 16561-29-8) 60%, 10%, 83%, p<0.05; (Carcinogen: 7,12-DIMETHYLBENZ[A]ANTHRACENE, 57-97-6, 330 UG 2/WK FOR 15 WK APPLIED 1 HR PRIOR TO EACH PROMOTER DOSE (STUDY DURATION: 15 WK), Route [Inhibitor]: DERMAL, Species: MOUSE, Strain/Sex: CD-1/FEMALE, Target Tissue: Type of Lesion: SKIN: TUMOR, Dose [Carcinogen]: 100 UG ONCE, Promoter: 12-O-TETRADECANOYLPHORBOL-13-ACETATE, 16561-29-8) 60%, 0%, 100%, p<0.05; (Carcinogen: N-METHYL-N-NITROSOUREA, 684-93-5, 2 MG/KG BW 5 D/WK FOR DURATION OF STUDY BEGINNING 2 WK PRIOR TO CARCINOGEN DOSE (STUDY DURATION: 194 D), Route [Inhibitor]: GAVAGE, Species: RAT, Strain/Sex: SPRAGUE-DAWLEY/FEMALE, Target Tissue: Type of Lesion: MAMMARY GLAND: ADENOCARCINOMA, Dose [Carcinogen]: 50 MG/KG BW ONCE, Promoter: NONE USED) 100%, 100%, 0%, not significant; (Carcinogen: N-METHYL-N-NITROSOUREA, 684-93-5, 4 MG/KG BW 5 D/WK FOR DURATION OF STUDY BEGINNING 2 WK PRIOR TO CARCINOGEN DOSE (STUDY DURATION: 194 D), Route [Inhibitor]: GAVAGE, Species: RAT, Strain/Sex: SPRAGUE-DAWLEY/FEMALE, Target Tissue: Type of Lesion: MAMMARY GLAND: ADENOCARCINOMA, Dose [Carcinogen]: 50 MG/KG BW ONCE, Promoter: NONE USED) 100%, 100%, 0%, not significant.
For `CC(/C=C/C=C(\C)C(=O)O)=C\C=C\C=C(C)\C=C\C=C(/C)C(=O)O`, the “tumour outcome (control, treated, inhibition, significance)” value (Carcinogen: BENZO[A]PYRENE, 50-32-8, 0.2 UMOL IN 0.2 ML ACETONE 2/WK FOR 20 WK ADMINISTERED CONCURRENTLY WITH PROMOTER (STUDY DURATION: 21 WK), Route [Inhibitor]: DERMAL, Species: MOUSE, Strain/Sex: CD-1/FEMALE, Target Tissue: Type of Lesion: SKIN: PAPILLOMA, Dose [Carcinogen]: 20 NMOL IN 0.2 ML ACETONE 1/WK FOR 10 WK, Promoter: 12-O-TETRADECANOYLPHORBOL-13-ACETATE, 16561-29-8) is given as 100%, 53%, 47%, not calculated and the “tumour outcome (control, treated, inhibition, significance)” value (Carcinogen: BENZO[A]PYRENE, 50-32-8, 1 UMOL IN 0.2 ML ACETONE 2/WK FOR 20 WK ADMINISTERED CONCURRENTLY WITH PROMOTER (STUDY DURATION: 21 WK), Route [Inhibitor]: DERMAL, Species: MOUSE, Strain/Sex: CD-1/FEMALE, Target Tissue: Type of Lesion: SKIN: PAPILLOMA, Dose [Carcinogen]: 20 NMOL IN 0.2 ML ACETONE 1/WK FOR 10 WK, Promoter: 12-O-TETRADECANOYLPHORBOL-13-ACETATE, 16561-29-8) is 100%, 28%, 72%, not calculated.
Take `C[C@@]12C=Cc3occc3[C@H]1CC[C@@]13C[C@@H](CC[C@H]12)[C@@](O)(CO)C3`: the “tumour outcome (control, treated, inhibition, significance)” value (Carcinogen: 7,12-DIMETHYLBENZ[A]ANTHRACENE, 57-97-6, 0.2 G/KG OF DIET OF 50:50 MIXTURE OF KAHWEOL AND CAFESTOL FOR 14 WK BEGINNING 1 WK PRIOR TO CARCINOGEN TREATMENT (STU, Route [Inhibitor]: ORAL, Species: HAMSTER, Strain/Sex: SYRIAN/FEMALE, Target Tissue: Type of Lesion: BUCCAL POUCH: TUMOR, Dose [Carcinogen]: 0.5% SOLUTION IN MINERAL OIL PAINTED ON LEFT BUCCAL POUCH 3/WK FOR 13 WK, Promoter: NONE USED) is on record as 14/14 (100%), 14/14 (100%), 0%, not significant and the “tumour outcome (control, treated, inhibition, significance)” value (Carcinogen: 7,12-DIMETHYLBENZ[A]ANTHRACENE, 57-97-6, 2 G/KG OF DIET OF 50:50 MIXTURE OF KAHWEOL AND CAFESTOL FOR 14 WK BEGINNING 1 WK PRIOR TO CARCINOGEN TREATMENT (STUDY, Route [Inhibitor]: ORAL, Species: HAMSTER, Strain/Sex: SYRIAN/FEMALE, Target Tissue: Type of Lesion: BUCCAL POUCH: TUMOR, Dose [Carcinogen]: 0.5% SOLUTION IN MINERAL OIL PAINTED ON LEFT BUCCAL POUCH 3/WK FOR 13 WK, Promoter: NONE USED) is given as 14/14 (100%), 14/15 (93%), 7%, not significant.
Consider `O=S(=O)([O-])[O-].O=S(=O)([O-])[O-].O=S(=O)([O-])[O-].[Mo]`, for which the “tumour outcome (control, treated, inhibition, significance)” value (Carcinogen: N-METHYL-N-BENZYLNITROSAMINE, 937-40-6, 2 PPM IN DIET FOR 1 WK PRIOR TO CARCINOGEN (STUDY DURATION: 25 WK), Route [Inhibitor]: ORAL, Species: RAT, Strain/Sex: F344/MALE, Target Tissue: Type of Lesion: ESOPHAGUS: CARCINOMA, Dose [Carcinogen]: 2.5 MG/KG 1/WK FOR 20 WK) is reported as 30/41 (73%), 20/45 (44%), 40%, p<0.01.
